Drawing on publication PMC9095466 (Nature, 2022), this text covers EC50 for one compound.

Common to all, as to experiment: microbe, parasite or virus in culture
What all share (assay type): cell-based

In test [1] the test system is SARS-CoV-2 B.1.1.7 (Alpha). The conditions noted are these: Calu-3 cells, n = 4.
Test [2] has as its system SARS-CoV-2 lineage B strain (VIDO). Particulars: Severe acute respiratory syndrome coronavirus 2, 72 h; Calu-3 cells, Fig. 3d, n = 4; read-out: EC50, dsRNA staining, Variant B (VIDO-01).
Test [3] deals with SARS-CoV-2 B.1.351 (Beta). Particulars: Calu-3 cells, n = 4.
Test [4] relates to SARS-CoV-2 B.1.617.2 (Delta). Particulars: Calu-3 cells, n = 4.
Test [5] deals with SARS-CoV-2 P.1 (Gamma). The conditions noted are these: Calu-3 cells, n = 4.

Structures are written as SMILES. Like-named read-outs stand apart in the source and are kept apart here.

As to `CS(=O)(=O)NC(CCC(N)=O)C(=O)NC(Cc1ccccc1)C(=O)NC(CCCNC(=N)N)C(=O)c1nc2ccccc2s1` (stereo not drawn) [Compound N-0385, Ms-QFR-kbt], the EC50 in test [1] (Severe acute respiratory syndrome coronavirus 2, 72 h, Fig. 3d, read-out: EC50, dsRNA staining, Variant B.1.1.7 (Alpha)) was determined as 2.6 nM; in test [1] (Severe acute respiratory syndrome coronavirus 2, Fig. 3c, read-out: EC50, N staining, Variant B.1.1.7 (Alpha)), 2.1 nM; in test [2], 14.3 nM; in test [3] (Severe acute respiratory syndrome coronavirus 2, 72 h, Fig. 3d, read-out: EC50, dsRNA staining, Variant B.1.351 (Beta)), 22 nM; in test [3] (Severe acute respiratory syndrome coronavirus 2, Fig. 3c, read-out: EC50, N staining, Variant B.1.351 (Beta)) it was 12.8 nM; in test [4] (Severe acute respiratory syndrome coronavirus 2, 72 h, Fig. 3d, read-out: EC50, dsRNA staining, Variant B.1.617.2 (Delta)) it was 26.5 nM. The EC50 in test [4] (Severe acute respiratory syndrome coronavirus 2, Fig. 3c, read-out: EC50, N staining, Variant B.1.617.2 (Delta)) was determined as 13.9 nM; in test [5] (Severe acute respiratory syndrome coronavirus 2, 72 h, Fig. 3d, read-out: EC50, dsRNA staining, Variant P.1 (Gamma)), 5.4 nM; in test [5] (Severe acute respiratory syndrome coronavirus 2, Fig. 3c, read-out: EC50, N staining, Variant P.1 (Gamma)) it was 6.5 nM.
